# Results from ChEMBL document CHEMBL3351874, “Rational design of inhibitors of the bacterial cell wall synthetic enzyme GlmU using virtual screening and lead-hopping” (Bioorg Med Chem, 2014).
# The source made the active and inactive calls. No cut-off for these calls is given here.
# Tests used:
# [1] = target: T1, Tyrosine-protein kinase JAK3 (Homo sapiens, UniProt P52333); assay: Inhibition of human JAK3 incubated for 20 mins prior to MgCl2 addition measured after 90 mins by mobility shift assay
# T1 sequence (P52333 whole entry): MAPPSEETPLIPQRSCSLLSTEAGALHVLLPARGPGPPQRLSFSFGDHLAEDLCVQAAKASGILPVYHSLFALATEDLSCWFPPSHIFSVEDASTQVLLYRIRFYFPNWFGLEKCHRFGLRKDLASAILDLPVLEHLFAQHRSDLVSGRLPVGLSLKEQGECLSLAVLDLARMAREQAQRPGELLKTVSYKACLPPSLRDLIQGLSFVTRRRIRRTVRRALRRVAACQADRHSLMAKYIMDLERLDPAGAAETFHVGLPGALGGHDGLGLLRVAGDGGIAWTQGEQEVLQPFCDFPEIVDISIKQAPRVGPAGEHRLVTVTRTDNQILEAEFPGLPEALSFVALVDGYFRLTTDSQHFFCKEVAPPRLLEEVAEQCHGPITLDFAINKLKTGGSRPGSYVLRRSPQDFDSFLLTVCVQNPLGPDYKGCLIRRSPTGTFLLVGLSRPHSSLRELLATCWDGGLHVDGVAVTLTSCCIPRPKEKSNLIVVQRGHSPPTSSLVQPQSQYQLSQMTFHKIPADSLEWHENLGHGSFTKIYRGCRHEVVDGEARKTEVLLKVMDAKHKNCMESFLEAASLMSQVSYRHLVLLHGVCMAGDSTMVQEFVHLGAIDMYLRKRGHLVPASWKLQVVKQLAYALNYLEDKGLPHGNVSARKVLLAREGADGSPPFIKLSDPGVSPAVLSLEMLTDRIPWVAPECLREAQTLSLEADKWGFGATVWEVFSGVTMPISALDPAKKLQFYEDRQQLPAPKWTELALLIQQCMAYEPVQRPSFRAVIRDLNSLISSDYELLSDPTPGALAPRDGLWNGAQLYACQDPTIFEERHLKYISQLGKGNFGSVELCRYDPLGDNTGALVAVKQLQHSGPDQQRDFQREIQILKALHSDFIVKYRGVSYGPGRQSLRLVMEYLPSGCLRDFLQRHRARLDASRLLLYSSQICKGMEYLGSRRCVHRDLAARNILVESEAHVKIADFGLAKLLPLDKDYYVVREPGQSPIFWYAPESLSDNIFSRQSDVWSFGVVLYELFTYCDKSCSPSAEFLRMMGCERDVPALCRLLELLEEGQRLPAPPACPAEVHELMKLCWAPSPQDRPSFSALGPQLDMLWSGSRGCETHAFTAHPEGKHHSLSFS
# [2] = target: Cyclin-dependent kinase 9 (Homo sapiens, UniProt P50750); assay: Inhibition of human CDK9 incubated for 20 mins prior to MgCl2 addition measured after 90 mins by mobility shift assay
# Cyclin-dependent kinase 9, sequence (P50750 whole entry): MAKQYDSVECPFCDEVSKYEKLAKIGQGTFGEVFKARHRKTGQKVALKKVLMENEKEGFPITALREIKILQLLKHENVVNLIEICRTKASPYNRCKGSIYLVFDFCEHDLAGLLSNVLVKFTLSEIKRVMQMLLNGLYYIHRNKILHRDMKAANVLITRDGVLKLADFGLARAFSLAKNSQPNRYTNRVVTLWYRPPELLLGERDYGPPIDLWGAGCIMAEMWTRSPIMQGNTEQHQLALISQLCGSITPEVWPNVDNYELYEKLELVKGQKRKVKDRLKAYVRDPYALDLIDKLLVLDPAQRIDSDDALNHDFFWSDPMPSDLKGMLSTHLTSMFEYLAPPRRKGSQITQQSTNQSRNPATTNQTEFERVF
# [3] = test system: Streptococcus pneumoniae; assay: Antibacterial activity against Streptococcus pneumoniae after 18 to 24 hrs by agar dilution method; assay type: functional, organism-based
# [4] = Inhibition of Haemophilus influenzae ATCC 51907 GlmU expressed in Escherichia coli BL21(DE3) incubated for 15 mins prior to MgCl2 addition measured after 30 mins by malachite green staining-based assay
# [5] = Serum protein binding in human at 10 uM after 30 mins by ultrafiltration method; assay type: ADME; conditions: read-out: PB (converted)
# [6] = target: Cyclin-dependent kinase 2 (Homo sapiens, UniProt P24941); assay: Inhibition of human CDK2 incubated for 20 mins prior to MgCl2 addition measured after 90 mins by mobility shift assay
# [7] = target: Tyrosine-protein kinase JAK1 (Homo sapiens, UniProt P23458); assay: Inhibition of human JAK1 incubated for 20 mins prior to MgCl2 addition measured after 90 mins by mobility shift assay
# Tyrosine-protein kinase JAK1, sequence (P23458 whole entry): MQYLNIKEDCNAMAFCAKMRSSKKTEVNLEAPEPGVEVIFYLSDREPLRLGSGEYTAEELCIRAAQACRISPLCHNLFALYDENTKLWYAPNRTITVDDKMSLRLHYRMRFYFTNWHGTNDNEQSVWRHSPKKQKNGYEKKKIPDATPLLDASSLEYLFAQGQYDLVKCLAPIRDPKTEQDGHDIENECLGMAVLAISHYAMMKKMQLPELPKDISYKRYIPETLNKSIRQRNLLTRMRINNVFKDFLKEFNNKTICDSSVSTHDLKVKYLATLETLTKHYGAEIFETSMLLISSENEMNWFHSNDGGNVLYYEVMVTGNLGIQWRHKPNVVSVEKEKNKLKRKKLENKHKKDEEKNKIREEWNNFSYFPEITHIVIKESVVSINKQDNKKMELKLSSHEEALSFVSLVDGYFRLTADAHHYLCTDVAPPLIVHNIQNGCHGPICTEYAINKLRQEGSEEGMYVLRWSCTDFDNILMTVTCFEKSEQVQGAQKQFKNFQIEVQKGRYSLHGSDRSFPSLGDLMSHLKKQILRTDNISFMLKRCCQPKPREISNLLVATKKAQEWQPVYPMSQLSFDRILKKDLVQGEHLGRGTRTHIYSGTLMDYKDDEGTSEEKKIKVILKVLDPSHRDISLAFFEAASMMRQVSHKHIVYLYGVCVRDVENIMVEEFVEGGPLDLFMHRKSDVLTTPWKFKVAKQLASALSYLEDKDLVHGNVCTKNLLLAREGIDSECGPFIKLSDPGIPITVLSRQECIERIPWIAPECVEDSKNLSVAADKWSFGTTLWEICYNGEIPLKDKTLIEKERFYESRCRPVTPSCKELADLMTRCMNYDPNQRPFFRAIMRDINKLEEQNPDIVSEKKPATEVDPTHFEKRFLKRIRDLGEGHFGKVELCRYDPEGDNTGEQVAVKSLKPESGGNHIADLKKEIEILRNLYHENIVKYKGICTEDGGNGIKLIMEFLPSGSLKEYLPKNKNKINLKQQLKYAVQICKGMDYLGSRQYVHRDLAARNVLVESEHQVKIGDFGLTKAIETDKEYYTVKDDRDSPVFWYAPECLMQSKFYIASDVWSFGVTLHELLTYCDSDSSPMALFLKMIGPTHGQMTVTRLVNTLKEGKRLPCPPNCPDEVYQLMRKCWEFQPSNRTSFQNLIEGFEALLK
# [8] = target: Aurora kinase B (Homo sapiens, UniProt Q96GD4); assay: Inhibition of human AURKB incubated for 20 mins prior to MgCl2 addition measured after 90 mins by mobility shift assay
# Aurora kinase B, sequence (Q96GD4 whole entry): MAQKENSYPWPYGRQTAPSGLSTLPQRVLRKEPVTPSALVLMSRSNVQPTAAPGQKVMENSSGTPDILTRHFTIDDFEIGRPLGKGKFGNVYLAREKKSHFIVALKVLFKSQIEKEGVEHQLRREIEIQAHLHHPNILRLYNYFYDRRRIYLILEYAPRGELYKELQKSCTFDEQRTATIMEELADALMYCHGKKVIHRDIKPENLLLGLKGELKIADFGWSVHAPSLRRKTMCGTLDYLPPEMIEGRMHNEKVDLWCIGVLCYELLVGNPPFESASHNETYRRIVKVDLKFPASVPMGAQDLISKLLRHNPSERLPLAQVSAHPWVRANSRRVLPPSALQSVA
# [9] = test system: Haemophilus influenzae; assay: Antibacterial activity against Haemophilus influenzae after 18 to 24 hrs by agar dilution method; assay type: functional, organism-based
# [10] = target: Cyclin-dependent kinase 1 (Homo sapiens, UniProt P06493); assay: Inhibition of human CDK1 incubated for 20 mins prior to MgCl2 addition measured after 90 mins by mobility shift assay
# Cyclin-dependent kinase 1, sequence (P06493 whole entry): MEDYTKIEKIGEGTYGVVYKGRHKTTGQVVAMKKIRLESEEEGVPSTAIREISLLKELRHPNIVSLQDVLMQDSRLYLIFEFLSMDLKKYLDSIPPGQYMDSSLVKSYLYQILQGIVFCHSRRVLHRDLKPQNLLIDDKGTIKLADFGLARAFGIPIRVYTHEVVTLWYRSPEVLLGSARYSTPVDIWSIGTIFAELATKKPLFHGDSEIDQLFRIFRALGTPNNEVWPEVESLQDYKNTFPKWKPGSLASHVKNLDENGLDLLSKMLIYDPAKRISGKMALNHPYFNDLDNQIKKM
# [11] = target: Tyrosine-protein kinase JAK2 (Homo sapiens, UniProt O60674); assay: Inhibition of human JAK2 incubated for 20 mins prior to MgCl2 addition measured after 90 mins by mobility shift assay
# Tyrosine-protein kinase JAK2, sequence (O60674 whole entry): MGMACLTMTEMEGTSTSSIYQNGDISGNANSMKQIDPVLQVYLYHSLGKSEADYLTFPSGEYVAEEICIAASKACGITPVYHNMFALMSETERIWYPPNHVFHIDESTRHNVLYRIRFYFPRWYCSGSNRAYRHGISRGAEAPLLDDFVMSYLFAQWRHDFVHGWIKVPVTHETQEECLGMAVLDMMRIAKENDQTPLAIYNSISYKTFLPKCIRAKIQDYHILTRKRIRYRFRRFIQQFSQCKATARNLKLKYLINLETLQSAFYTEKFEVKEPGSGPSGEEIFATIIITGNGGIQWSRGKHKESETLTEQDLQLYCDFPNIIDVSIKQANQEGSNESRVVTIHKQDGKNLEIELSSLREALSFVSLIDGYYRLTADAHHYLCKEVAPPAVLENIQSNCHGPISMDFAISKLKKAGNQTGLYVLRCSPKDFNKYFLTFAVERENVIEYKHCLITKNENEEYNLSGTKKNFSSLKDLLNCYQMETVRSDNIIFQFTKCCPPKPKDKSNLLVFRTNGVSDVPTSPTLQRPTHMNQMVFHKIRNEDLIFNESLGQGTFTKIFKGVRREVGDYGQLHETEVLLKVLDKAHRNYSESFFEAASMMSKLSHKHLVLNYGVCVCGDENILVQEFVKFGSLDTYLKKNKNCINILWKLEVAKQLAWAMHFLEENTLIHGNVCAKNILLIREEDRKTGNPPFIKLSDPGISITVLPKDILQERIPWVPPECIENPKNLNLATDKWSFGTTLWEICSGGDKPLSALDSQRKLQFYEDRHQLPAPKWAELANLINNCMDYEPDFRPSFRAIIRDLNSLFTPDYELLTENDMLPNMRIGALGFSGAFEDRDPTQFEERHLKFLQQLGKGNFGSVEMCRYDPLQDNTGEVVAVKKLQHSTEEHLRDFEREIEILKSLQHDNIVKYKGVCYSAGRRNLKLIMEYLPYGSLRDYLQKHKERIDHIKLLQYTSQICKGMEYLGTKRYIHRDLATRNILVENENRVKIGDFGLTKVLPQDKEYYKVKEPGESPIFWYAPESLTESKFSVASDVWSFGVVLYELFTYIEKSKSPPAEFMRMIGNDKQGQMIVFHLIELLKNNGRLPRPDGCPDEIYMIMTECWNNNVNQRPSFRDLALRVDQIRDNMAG
# [12] = target: T2, Interleukin-1 receptor-associated kinase 4 (Homo sapiens, UniProt Q9NWZ3); assay: Inhibition of human IRAK4 incubated for 20 mins prior to MgCl2 addition measured after 90 mins by mobility shift assay
# T2 sequence (Q9NWZ3 whole entry): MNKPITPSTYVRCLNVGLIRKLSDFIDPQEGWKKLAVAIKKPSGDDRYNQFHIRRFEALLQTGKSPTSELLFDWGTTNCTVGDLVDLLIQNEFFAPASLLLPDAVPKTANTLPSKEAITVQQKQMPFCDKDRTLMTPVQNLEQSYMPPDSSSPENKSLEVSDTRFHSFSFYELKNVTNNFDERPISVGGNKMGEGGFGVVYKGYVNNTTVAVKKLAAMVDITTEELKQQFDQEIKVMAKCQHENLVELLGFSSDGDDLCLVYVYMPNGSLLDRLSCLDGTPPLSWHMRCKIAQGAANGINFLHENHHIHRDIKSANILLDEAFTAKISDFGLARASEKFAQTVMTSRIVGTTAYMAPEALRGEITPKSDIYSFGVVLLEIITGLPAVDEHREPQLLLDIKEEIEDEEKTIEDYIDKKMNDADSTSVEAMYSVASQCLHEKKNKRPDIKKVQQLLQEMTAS
# [13] = target: Interleukin-1 receptor-associated kinase 1 (Homo sapiens, UniProt P51617); assay: Inhibition of human IRAK1 incubated for 20 mins prior to MgCl2 addition measured after 90 mins by mobility shift assay
# Interleukin-1 receptor-associated kinase 1, sequence (P51617 whole entry): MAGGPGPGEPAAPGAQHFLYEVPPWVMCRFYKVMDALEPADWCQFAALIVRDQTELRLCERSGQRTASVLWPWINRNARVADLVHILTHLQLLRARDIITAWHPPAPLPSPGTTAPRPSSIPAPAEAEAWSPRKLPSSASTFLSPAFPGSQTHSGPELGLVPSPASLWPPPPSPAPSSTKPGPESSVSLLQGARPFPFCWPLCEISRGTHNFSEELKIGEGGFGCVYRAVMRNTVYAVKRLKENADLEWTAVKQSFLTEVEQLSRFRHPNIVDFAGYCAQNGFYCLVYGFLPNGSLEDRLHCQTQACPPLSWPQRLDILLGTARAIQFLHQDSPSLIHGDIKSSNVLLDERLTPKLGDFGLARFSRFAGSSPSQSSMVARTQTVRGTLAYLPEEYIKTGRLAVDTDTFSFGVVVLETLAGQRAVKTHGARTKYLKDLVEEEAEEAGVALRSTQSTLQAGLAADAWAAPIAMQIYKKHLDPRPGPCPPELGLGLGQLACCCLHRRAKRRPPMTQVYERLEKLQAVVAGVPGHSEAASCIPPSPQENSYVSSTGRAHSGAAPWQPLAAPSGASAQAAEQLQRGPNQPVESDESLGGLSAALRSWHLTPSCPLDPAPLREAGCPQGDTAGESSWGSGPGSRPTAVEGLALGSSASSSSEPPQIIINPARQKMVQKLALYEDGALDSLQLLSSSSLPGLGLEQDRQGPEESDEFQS
# [14] = test system: Streptococcus pyogenes; assay: Antibacterial activity against Streptococcus pyogenes after 18 to 24 hrs by agar dilution method; assay type: functional, organism-based
# [15] = target: Bifunctional protein GlmU (Escherichia coli, UniProt C3SLB7); assay: Inhibition of Escherichia coli ATCC 27325 GlmU expressed in Escherichia coli HMS174(DE3) incubated for 15 mins prior to MgCl2 addition measured after 30 mins by malachite green staining-based assay
# Bifunctional protein GlmU, sequence (C3SLB7 whole entry): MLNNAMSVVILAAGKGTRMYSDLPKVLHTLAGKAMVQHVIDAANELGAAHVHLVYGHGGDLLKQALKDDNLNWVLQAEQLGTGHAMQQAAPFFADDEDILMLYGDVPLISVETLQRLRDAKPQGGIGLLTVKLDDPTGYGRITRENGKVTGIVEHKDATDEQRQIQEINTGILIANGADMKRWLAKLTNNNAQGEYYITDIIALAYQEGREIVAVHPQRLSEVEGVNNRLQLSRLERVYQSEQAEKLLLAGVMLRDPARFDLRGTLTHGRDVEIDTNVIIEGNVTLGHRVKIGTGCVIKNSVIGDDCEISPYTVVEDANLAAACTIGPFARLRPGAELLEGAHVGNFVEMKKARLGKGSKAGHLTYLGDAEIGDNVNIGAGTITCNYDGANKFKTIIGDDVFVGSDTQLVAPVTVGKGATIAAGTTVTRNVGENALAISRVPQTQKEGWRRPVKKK
# [16] = test system: Moraxella catarrhalis; assay: Antibacterial activity against Moraxella catarrhalis after 18 to 24 hrs by agar dilution method; assay type: functional, organism-based
compound,measurement,setting,value
COc1cc(C(=O)Nc2ccc(NC(=O)C3CCCCN3)cc2)cc(-c2c[nH]c(=O)[nH]c2=O)c1 (configuration not stated),IC50,[1],> 30 µM
same,IC50,[2],> 30 µM
same,Activity,[3],inactive
same,IC50,[4],0.05 µM
same,"fraction unbound at 0.5 h, 10 µM",[5],0.395
same,IC50,[6],> 30 µM
same,IC50,[7],> 30 µM
same,IC50,[8],> 30 µM
same,Activity,[9],inactive
same,IC50,[10],> 30 µM
same,IC50,[11],> 30 µM
same,IC50,[12],> 30 µM
same,IC50,[13],> 30 µM
same,Activity,[14],inactive
same,IC50,[15],0.12 µM
same,Activity,[16],inactive
CCNC(=O)Nc1ccc(NC(=O)c2cc(OC)cc(-c3c[nH]c(=O)[nH]c3=O)c2)cc1,IC50,[1],> 30 µM
same,IC50,[2],> 30 µM
same,Activity,[3],inactive
same,IC50,[4],0.077 µM
same,"fraction unbound at 0.5 h, 10 µM",[5],0.159
same,IC50,[6],> 30 µM
same,IC50,[7],> 30 µM
same,IC50,[8],18.1 µM
same,Activity,[9],inactive
same,IC50,[10],> 30 µM
same,IC50,[11],> 30 µM
same,IC50,[12],> 30 µM
same,IC50,[13],> 30 µM
same,Activity,[14],inactive
same,IC50,[15],0.97 µM
same,Activity,[16],inactive
